Reference: patent US20210393932A1, “DERMAL PATCHES AND GLASS SWABS FOR APPLICATION OF TOPICAL IMMUNOSENSITIZERS” (Squarex, LLC, priority 2020, published 2021)
Values joined by “and” are separate entries in the source; they are usually repeats but may differ in a detail not shown here. Equal entries are not always repeated. “Also recorded” adds a separate entry of the source.

Assays:
[1] = system: pig skin; experiment: Skin irritation (erythema, edema) after SADBE dermal patches in swine; type: in vivo; settings: for Average high erythema score: across all patches, doses and exposure times
From the text: An additional purpose was to assess immediate and delayed skin irritation, including erythema and edema on the pig skin over 4 weeks after dosing. Skin irritation was scored as in Table 5. [table] It was scored 3 times per week at each patch application site for four weeks. The scores shown are the erythema score at the time of patch removal, and then the highest of the 3 scores taken each week for each patch site.

[2] = system: mini pig skin; experiment: Cutaneous irritation (Draize, Primary Irritation Index) after SADBE dermal patch in Gottingen mini-pig; type: in vivo, Gottingen miniswine; settings: for Primary Irritation Index (pII) / Primary Irritation Index (pII), transient peak: 0-8 scale; for Primary Irritation Index (pII), transient peak: after the second dose; for duration of moderate levels of irritation / time to return to non-irritating levels post-dermal-application: re-challenge; for duration of severe cutaneous irritation: re-challenge at naive site
Experimental: A total of 6 Gottingen miniswine (3 female and 3 male) was used in this nonGLP study. Prior to dosing, the baseline body weights, group food consumption, and Draize scoring (see tables 1 and 2) for erythema and eschar formation and edema at the future dose site were recorded. A dermal patch (1 patch/animal) loaded with 20 microliters of 2, 6, or 18% SADBE drug solution was applied to animals, and left in place for ˜12 hours. Following the ˜12 hour dosing period, patch sites was assessed by Draize scoring as in Example 5, 5×/week for 21 days. […] After the 25 day assessment period, the animals were re-challenged and a second dosing and assessment phase performed for 30 days. At the end of the survival period, animals were humanely euthanized and a complete necropsy was performed. The test article vials used to prepare patches and mini-pig exposed patches were collected after application to determine SADBE content and SADBE degradation product squaric acid monobutyl ester (SAMBE) using HPLC at Squarex's Laboratory.
Cutaneous irritation at the test site was observed and scored each day of the study by the Draize Scale for both Erythema & Eschar and Edema. The scale for each is in Tables 9 and 10 in Example 5, each on a 0-4 scale. The cumulative Erythema & Eschar and Edema score was the Primary Irritation Index score, which would therefore be on a 0-8 scale.
The daily primary irritation index (pII) for each test article dose over the course of the study was calculated (FIG. 5). The pII is used to categorize the test article treatments as negligible to not irritating (0-0.9), slight (0.9-1.9), moderate (2-4.9) or severe (5-8) irritation potential.

[3] = Residual SADBE and SAMBE in patches after 12 hours on guinea pigs; type: in vivo, guinea pig
Experimental: Patches were removed from the pigs at the indicated times and immediately the reservoir portion of the patch was cut out and placed in a 50 ml tube with 10 ml of DMSO. The tubes of DMSO with patches were transported to the Squarex laboratory, shaken at 200 rpm for 1 hour or more, and then the DMSO from each tube was placed in an injection vial and analyzed for SADBE content by HPLC on a C18 column with the program SADBE3-50 ul. SADBE elutes in this program at about 24.0 minutes and absorbs at 255 nm, so the area of the 24.0 min peak at 255 nm was used to quantify SADBE. The SADBE degradation product squaric acid monobutyl ester (SAMBE) was also quantified by 255 nm area under the curve at the elution time of 12.7 minutes.

[4] = Toxicity evaluation (body weight, food consumption, clinical observation, histopathology) in guinea pig; type: in vivo
From the text: The purpose of this nonGLP study was to evaluate the effect of various concentrations of SADBE delivered via dermal patch, for dose site irritation and toxicity endpoints such as body weights, group food consumption, clinical observation, pre-termination clinical pathology, gross and histopathology.
Thirty (30) guinea pigs (15 female and 15 male) were utilized for this nonGLP study. Prior to and post dosing (dermal patches loaded with 20 microliters of 2, 6, or 18% SADBE drug solution) body weights, group food consumption, and Draize scoring for erythema, eschar formation, and edema at the dose site were be recorded. The dermal patch loaded with SADBE was applied to animals, and left in place for ˜12 hours plus/minus 1 hour. Following the ˜12 hour dosing period, patch sites was assessed by Draize scoring. […] After the 28 days assessment period, re challenge was performed, a second patch (not treated during the induction phase) was applied and assessed by Draize scoring.
At the end of the survival period, blood was collected for standard hematology and serum chemistry analysis, and the animals humanely euthanized. The second dose site and cervical lymph nodes were collected at necropsy for further histopathological evaluation. Dose site was explanted, fixed, and embedded. Dose sites were examined histologically and an evaluation of cell type presence and tissue response conducted.

[5] = any dose tested (2%, 6%, 18% SADBE patch)
[6] = female, Group 1, 2% SADBE patch
[7] = female, Group 3, 18% SADBE patch

CCCCOc1c(OCCCC)c(=O)c1=O [SADBE, squaric acid dibutyl ester]
Average erythema score weeks 0-3 ([1]; 20 ul of 2% SADBE, 1 hour exposure): 0 | Average erythema score weeks 0-3 ([1]; 20 ul of 2% SADBE, 3 hours exposure): 0.83 | Average erythema score weeks 0-3 ([1]; 20 ul of 2% SADBE, 6 hours exposure): 0.92 | Average erythema score weeks 0-3 ([1]; 20 ul of 2% SADBE, 24 hours exposure): 1.5 | Average erythema score weeks 0-3 ([1]; 50 ul of 2% SADBE, 1 hour exposure): 1.5 | Average erythema score weeks 0-3 ([1]; 50 ul of 2% SADBE, 3 hours exposure): 2.125 | Average erythema score weeks 0-3 ([1]; 50 ul of 2% SADBE, 6 hours exposure): 1.92 | Average erythema score weeks 0-3 ([1]; 50 ul of 2% SADBE, 24 hours exposure): 2.5 | Average erythema score weeks 0-3 ([1]; 80 ul of 2% SADBE, 1 hour exposure): 1.375 | Average erythema score weeks 0-3 ([1]; 80 ul of 2% SADBE, 3 hours exposure): 1.625 | Average erythema score weeks 0-3 ([1]; 80 ul of 2% SADBE, 6 hours exposure): 1.25 | Average erythema score weeks 0-3 ([1]; 80 ul of 2% SADBE, 24 hours exposure): 2.25 | Average high erythema score ([1]; Week 1): 1.05 | Average high erythema score ([1]; Week 2): 2.60 | Average high erythema score ([1]; Week 3): 1.73 | Average high erythema score ([1]; Week 4): 0.00 | edema at drug application site ([1]; any site, any time after patch application and removal): No pigs had edema | Average high erythema score ([1]; at patch removal): 0.63 | irritation category by Primary Irritation Index (pII) ([2]; 2% SADBE, 20 microliters patch, ~12 hours, first dose): moderately irritating | Primary Irritation Index (pII) ([2]; 2% SADBE, after the first dose): ~3.5 | Primary Irritation Index (pII), transient peak ([2]; 2% SADBE): 5 | duration of moderate cutaneous irritation ([2]; 2% SADBE, induction): > 15 days | duration of moderate levels of irritation ([2]; 2% SADBE): ~17 days | time to return to non-irritating levels post-dermal-application ([2]; 2% SADBE): ~22 days | irritation category by Primary Irritation Index (pII) ([2]; 2% SADBE, re-challenge (second dose)): moderately-severely irritating | duration of severe cutaneous irritation ([2]; 2% SADBE): 1 to 2 days | irritation category by Primary Irritation Index (pII) ([2]; 6% SADBE, 20 microliters patch, ~12 hours, first dose): moderately irritating | Primary Irritation Index (pII) ([2]; 6% SADBE, after the first dose): 3.0-4.0 | Primary Irritation Index (pII), transient peak ([2]; 6% SADBE): 5.5 | duration of moderate cutaneous irritation ([2]; 6% SADBE, induction): ~21 days | duration of moderate levels of irritation ([2]; 6% SADBE): ~19 days | time to return to non-irritating levels post-dermal-application ([2]; 6% SADBE): ~22 days | irritation category by Primary Irritation Index (pII) ([2]; 6% SADBE, re-challenge (second dose)): moderately-severely irritating | duration of severe cutaneous irritation ([2]; 6% SADBE): 1 days | irritation category by Primary Irritation Index (pII) ([2]; 18% SADBE, 20 microliters patch, ~12 hours, first dose): moderately-severely irritating | Primary Irritation Index (pII) ([2]; 18% SADBE, first dose): ~5.0 | duration of moderate-severe cutaneous irritation ([2]; 18% SADBE, induction): ~22 days | duration of moderate levels of irritation ([2]; 18% SADBE): ~24 days | time to return to non-irritating levels post-dermal-application ([2]; 18% SADBE): ~26 days | irritation category by Primary Irritation Index (pII) ([2]; 18% SADBE, re-challenge (second dose)): severely irritating | duration of severe cutaneous irritation ([2]; 18% SADBE): ~5 days | Primary Irritation Index (pII) ([2]; 18% SADBE, second dose): ~6 | SADBE as % of expected (remaining in patch) ([3]; 2% patches, range of 10 patches): 0.0-1.3% | SADBE as % of expected (remaining in patch) ([3]; 6% patches, average of 10 patches): 11% and 10.67% | SADBE as % of expected (remaining in patch) ([3]; 6% patches, range of 10 patches): 2.7-22.7% | SADBE as % of expected (remaining in patch) ([3]; 18% patches, average of 10 patches): 34% and 34.13% | SADBE as % of expected (remaining in patch) ([3]; 18% patches, range of 10 patches): 23.0-46.5% | lymph node sections ([4]; all SADBE treated groups (summary)): within normal limits | clinical monitoring observations ([4]; all doses): did not reveal any significant abnormalities | histopathology observed at all SADBE treated sites (summary) ([4]; all doses): mild to moderate parakeratosis, minimal multifocal necrosis and fatty infiltration | systemic toxicity ([4]; all doses, post-dosing and daily throughout study): no signs of systemic toxicity | effect on body weight [4, 5]: no significant effect; also recorded: not affected | effect on food consumption [4, 5]: no significant effect; also recorded: not affected | histopathology of treated skin sites: inflammatory infiltrates in the dermis [4, 6]: multifocal rare to mild infiltrates of inflammatory cells | histopathology of treated skin sites: necrosis, neovascularization, fibrosis, fatty infiltration [4, 6]: Necrosis, neovascularization, fibrosis and fatty infiltration were not noted | histopathology of treated skin sites: inflammatory infiltrates in the dermis ([4]; female, Group 2, 6% SADBE patch): multifocal rare to mild infiltrates of inflammatory cells | histopathology of treated skin sites: necrosis, neovascularization, fatty infiltration ([4]; female, Group 2, 6% SADBE patch, narrow fibrous band in three animals): Necrosis, neovascularization and fatty infiltration were not noted | histopathology of treated skin sites: inflammatory infiltrates in the dermis [4, 7]: multifocal rare to mild infiltrates of inflammatory cells | histopathology of treated skin sites: necrosis, neovascularization [4, 7]: Minimal multifocal necrosis and neovascularization was noted | histopathology of treated skin sites: inflammatory infiltrates in the dermis ([4]; male, Group 1, 2% SADBE patch): multifocal rare infiltrates of inflammatory cells | histopathology of treated skin sites: necrosis, neovascularization, fibrosis, fatty infiltration ([4]; male, Group 1, 2% SADBE patch): Necrosis, neovascularization, fibrosis and fatty infiltration were not noted | histopathology of treated skin sites: inflammatory infiltrates in the dermis ([4]; male, Group 2, 6% SADBE patch): multifocal rare to mild infiltrates of inflammatory cells | histopathology of treated skin sites: necrosis, neovascularization, fibrosis, fatty infiltration ([4]; male, Group 2, 6% SADBE patch): Necrosis, neovascularization, fibrosis and fatty infiltration were not noted | histopathology of treated skin sites: inflammatory infiltrates in the dermis ([4]; male, Group 3, 18% SADBE patch): multifocal rare to heavy infiltrates of inflammatory cells | histopathology of treated skin sites: necrosis, neovascularization ([4]; male, Group 3, 18% SADBE patch): Minimal, multofocal necrosis and mild multifocal neovascularization was noted
